Source: patent publication US20170369492A1 (Takeda Pharmaceutical Company Limited, priority 2014, published 2017)

What follows are molecules tested against T1, human GPR43 (Homo sapiens, UniProt O15552) (assay: Ca-Flux Functional Assay: Determination of Agonist/Positive Allosteric Modulator (PAM) Activity). Conditions: CHO-K1 Gα16 cells stably expressing human GPR43; compound added in the presence of EC20 sodium acetate; intracellular Ca2+ by FLIPR; agonist/PAM activity not distinguished.
T1 construct: expressed in transfected cells
T1 sequence (O15552 1-330): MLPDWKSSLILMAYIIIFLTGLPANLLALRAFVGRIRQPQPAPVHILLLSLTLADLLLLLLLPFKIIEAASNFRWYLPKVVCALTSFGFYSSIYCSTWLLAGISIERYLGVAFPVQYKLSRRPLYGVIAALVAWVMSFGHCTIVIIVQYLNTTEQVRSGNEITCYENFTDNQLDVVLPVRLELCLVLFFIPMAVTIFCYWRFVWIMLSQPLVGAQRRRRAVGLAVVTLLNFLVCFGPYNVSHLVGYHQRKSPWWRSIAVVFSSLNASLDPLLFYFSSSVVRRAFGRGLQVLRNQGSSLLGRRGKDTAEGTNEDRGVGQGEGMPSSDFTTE
Type: cell-based
Protocol: Ca-Flux Functional Assay: Determination of Agonist/Positive Allosteric Modulator (PAM) Activity
GPR43 agonist/PAM activity was determined by measuring changes in intracellular calcium levels using a Ca^2+ sensitive fluorescent dye. The changes in fluorescent signal were monitored by FLIPR (manufactured by Molecular Devices). GPR43 mediated increases in intracellular Ca^2+ concentration were readily detected upon activation with sodium acetate. Prior to the assay (24 hours), CHO-K1 Gα16 cells stably expressing human GPR43 were-seeded in cell culture medium in black, clear-bottom 384-well plates (Corning Inc) and grown overnight at 37° C., 5% CO2. On the day of the assay, cell culture media was removed and cells were loaded with Calcium 5 Dye (Molecular Devices) diluted in HBSS containing 25 mM HEPES, 2.5 mM Probenecid, 0.1% BSA for 1 hour at 37° C., 5% CO2. 10 point half log concentration response curves of sodium acetate from 10 mM were conducted prior to the testing of compounds to calculate the sodium acetate concentration that produces 20% of the maximal response (EC20). Test compounds (at to point half log concentration response curves from 10 μM) were added in the presence of sodium acetate to achieve a final concentration that produces approximately 20% maximal response as calculated from the previous experiment. The changes in fluorescent signal were monitored by FLIPR upon addition of the compound/EC20 sodium acetate mix. The EC50 values were determined from ten point concentration response curves. Curves were generated using the average of two wells for each data point.
The above assay detects both GPR43 receptor agonists and positive allosteric modulators of the GPR43 receptor, without distinguishing between the two. Activity in either regard is useful in the treatment of conditions associated with GPR43 receptor activity.

Point of comparison: `Nc1c(S(=O)(=O)N2CCC(Oc3ccccc3)CC2)c2nccnc2n1C1CCCCC1` [Example 85, 5-cyclohexyl-7-(4-phenoxypiperidine-1-sulfonyl)-5H-pyrrolo[2,3-b]pyrazin-6-amine], EC50 1.06 µM. Against it:
- CC1(C)CC1Cn1c(N)c(S(=O)(=O)c2ccccc2)c2nccnc21 (centres unmarked) [Example 56, 5-((2,2-dimethylcyclopropyl)methyl)-7-(phenylsulfonyl)-5H-pyrrolo[2,3-b]pyrazin-6-amine] — within 1.5-fold, 1.3 µM
- Nc1c(S(=O)(=O)NCC2CCCO2)c2nccnc2n1C1CCCCC1 (centres unmarked) [Example 96, 6-amino-5-cyclohexyl-N-(oxolan-2-ylmethyl)-5H-pyrrolo[2,3-b]pyrazine-7-sulfonamide] — 1.8-fold higher, 1.95 µM
- CC(C)(C)CCn1c(N)c(S(=O)(=O)c2ccccc2)c2nccnc21 [Example 52, 5-(3,3-dimethylbutyl)-7-(phenylsulfonyl)-5H-pyrrolo[2,3-b]pyrazin-6-amine] — within 1.5-fold, 0.822 µM
- CCCN(C)S(=O)(=O)c1c(N)n(C2CCCCC2)c2nccnc12 [Example 60, 6-amino-5-cyclohexyl-N-methyl-N-propyl-5H-pyrrolo[2,3-b]pyrazine-7-sulfonamide] — within 1.5-fold, 1.41 µM
- COc1ccc(S(=O)(=O)c2c(N)n(C3CCC(F)(F)CC3)c3cccnc23)cc1 [Example 22, 1-(4,4-difluorocyclohexyl)-3-[(4-methoxybenzene)sulfonyl]-1H-pyrrolo[3,2-b]pyridin-2-amine] — 6.3-fold lower, 0.167 µM
- Nc1c(S(=O)(=O)c2ccccc2)c2nccnc2n1C1CCCCC1O (centres unmarked) [Example 47, 2-(6-amino-7-(phenylsulfonyl)-5H-pyrrolo[2,3-b]pyrazin-5-yl)cyclohexanol] — 6.1-fold higher, 6.49 µM
- Nc1c(S(=O)(=O)N2CC(n3cccn3)C2)c2nccnc2n1C1CCCCC1 [Example 101, 5-cyclohexyl-7-[3-(1H-pyrazol-1-yl)azetidine-1-sulfonyl]-5H-pyrrolo[2,3-b]pyrazin-6-amine] — 6.6-fold higher, 7.03 µM
- CC1CCN(S(=O)(=O)c2c(N)n(C3CCCCC3)c3nccnc23)C1 (centres unmarked) [Example 67, 5-cyclohexyl-7-((3-methylpyrrolidin-1-yl)sulfonyl)-5H-pyrrolo[2,3-b]pyrazin-6-amine] — within 1.5-fold, 0.83 µM
- COc1ncnc2c(S(=O)(=O)c3ccccc3)c(N)n(C3CCCCC3)c12 [Example 26, 7-(benzenesulfonyl)-5-cyclohexyl-4-methoxy-5H-pyrrolo[3,2-d]pyrimidin-6-amine] — 13-fold lower, 0.079 µM
- Nc1c(S(=O)(=O)Nc2ccccc2)c2nccnc2n1C1CCCCC1 [Example 41, 6-amino-5-cyclohexyl-N-phenyl-5H-pyrrolo[2,3-b]pyrazine-7-sulfonamide] — 1.8-fold lower, 0.585 µM
- COc1nccc2c(S(=O)(=O)c3ccccc3)c(N)n(C3CCCCC3)c12 [Example 36, 3-(benzenesulfonyl)-1-cyclohexyl-7-methoxy-1-pyrrolo[2,3-c]pyridin-2-amine] — 4.3-fold lower, 0.245 µM
- Nc1c(S(=O)(=O)c2ccc3c(c2)OCCO3)c2nccnc2n1C1CCCCC1 [Example 117, 5-cyclohexyl-7-(2,3-dihydro-1,4-benzodioxine-6-sulfonyl)-5H-pyrrolo[2,3-b]pyrazin-6-amine] — 8.5-fold lower, 0.124 µM
- Nc1c(S(=O)(=O)C2CCCCC2)c2nccnc2n1C1CCCCC1 [Example 12, 7-(cyclohexanesulfonyl)-5-cyclohexyl-5-pyrrolo[2,3-b]pyrazin-6-amine] — 1.6-fold lower, 0.671 µM
- CN(C)c1ncnc2c(S(=O)(=O)c3ccccc3)c(N)n(C3CCCCC3)c12 [Example 34, 7-(benzenesulfonyl)-5-cyclohexyl-4-N,4-N-dimethyl-5H-pyrrolo[3,2-d]pyrimidine-4,6-diamine] — 5.6-fold higher, 5.98 µM
- Nc1c(S(=O)(=O)NCC2COC2)c2nccnc2n1C1CCCCC1 [Example 80, 6-amino-5-cyclohexyl-N-(oxetan-3-ylmethyl)-5H-pyrrolo[2,3-b]pyrazine-7-sulfonamide] — 5.7-fold higher, 6.07 µM
- COc1ccc(S(=O)(=O)c2c(N)n(C3CCC(F)(F)CC3)c3nccnc23)cc1 [Example 13, 5-(4,4-difluorocyclohexyl)-7-[(4-methoxybenzene)sulfonyl]-5H-pyrrolo[2,3-b]pyrazin-6-amine] — 8.2-fold lower, 0.129 µM
- CC1(C)CCN(S(=O)(=O)c2c(N)n(C3CCCCC3)c3nccnc23)C1 [Example 75, 5-cyclohexyl-7-(3,3-dimethylpyrrrolidine-1-sulfonyl)-5H-pyrrolo[2,3-b]pyrazin-6-amine] — within 1.5-fold, 1.19 µM
- Nc1c(S(=O)(=O)N2CCC(OCC3CC3)CC2)c2nccnc2n1C1CCCCC1 [Example 107, 5-cyclohexyl-7-[4-(cyclopropylmethoxy)piperidine-1-sulfonyl]-5H-pyrrolo[2,3-b]pyrazin-6-amine] — 3.3-fold lower, 0.32 µM
- CC1CCN(S(=O)(=O)c2c(N)n(C3CCCCC3)c3nccnc23)CC1 [Example 62, 5-cyclohexyl-7-((4-methylpiperidin-1-yl)sulfonyl)-5H-pyrrolo[2,3-b]pyrazin-6-amine] — 3.5-fold lower, 0.303 µM
- CN(C1CCCCC1)S(=O)(=O)c1c(N)n(C2CCCCC2)c2nccnc12 [Example 71, 6-amino-N,5-dicyclohexyl-N-methyl-5H-pyrrolo[2,3-b]pyrazine-7-sulfonamide] — 7.9-fold higher, 8.38 µM
- CC(=O)N(C)C1CCN(S(=O)(=O)c2c(N)n(C3CCCCC3)c3nccnc23)CC1 [Example 79, N-(1-{6-amino-5-cyclohexyl-5H-pyrrolo[2,3-b]pyrazine-7-sulfonyl}piperidin-4-yl)-N-methylacetamide] — 5.6-fold higher, 5.97 µM
- CCOc1ncnc2c(S(=O)(=O)c3ccccc3)c(N)n(C3CCC(F)(F)CC3)c12 [Example 29, 7-(benzenesulfonyl)-5-(4,4-difluorocyclohexyl)-4-ethoxy-5H-pyrrolo[3,2-d]pyrimidin-6-amine] — 34-fold lower, 0.031 µM
- Nc1c(S(=O)(=O)c2ccccc2)c2nccnc2n1CCC1CC1 [Example 48, 5-(2-cyclopropylethyl)-7-(phenylsulfonyl)-5H-pyrrolo[2,3-b]pyrazin-6-amine] — 3.1-fold higher, 3.26 µM
- Nc1c(S(=O)(=O)c2ccccc2)c2ncccc2n1C1CCC(F)(F)CC1 [Example 21, 3-(benzenesulfonyl)-1-(4,4-difluorocyclohexyl)-1H-pyrrolo[3,2-b]pyridin-2-amine] — 3.8-fold lower, 0.282 µM
- Nc1c(S(=O)(=O)c2ccccc2)c2ncnc(OCc3ccccc3)c2n1C1CCC(F)(F)CC1 [Example 30, 7-(benzenesulfonyl)-4-(benzyloxy)-5-(4,4-difluorocyclohexyl)-5H-pyrrolo[3,2-d]pyrimidin-6-amine] — 5.3-fold lower, 0.199 µM
- Cc1ccc(S(=O)(=O)c2c(N)n(C3CCCC3)c3nccnc23)cc1 [Example 4, 5-cyclopentyl-7-[(4-methylbenzene)sulfonyl]-5H-pyrrolo[2,3-b]pyrazin-6-amine] — within 1.5-fold, 0.908 µM
- N#Cc1ccc(S(=O)(=O)c2c(N)n(C3CCCCC3)c3nccnc23)cc1 [Example 113, 4-{6-amino-5-cyclohexyl-5H-pyrrolo[2,3-b]pyrazine-7-sulfonyl}benzonitrile] — 2.2-fold lower, 0.486 µM
- CNc1ncnc2c(S(=O)(=O)c3ccccc3)c(N)n(C3CCC(F)(F)CC3)c12 [Example 33, 7-(benzenesulfonyl)-5-(4,4-difluorocyclohexyl)-4-N-methyl-5H-pyrrolo[3,2-d]pyrimidine-4,6-diamine] — 2.6-fold higher, 2.72 µM
- Nc1c(S(=O)(=O)c2ccccc2)c2nccnc2n1C1CCC(F)(F)CC1 [Example 49, 5-(4,4-difluoro-cyclohexyl)-7-(phenylsulfonyl)-5H-pyrrolo[2,3-b]pyrazin-6-amine] — 5-fold lower, 0.211 µM
- CC1CCCCC1n1c(N)c(S(=O)(=O)c2ccccc2)c2nccnc21 (mixture of isomers) [Example 44, 5-(2-methylcyclohexyl)-7-(phenylsulfonyl)-5H-pyrrolo[2,3-b]pyrazin-6-amine] — within 1.5-fold, 1.07 µM
- COc1ncnc2c(S(=O)(=O)c3ccccc3)c(N)n(C3CCCC3)c12 [Example 35, 7-(benzenesulfonyl)-5-cyclopentyl-4-methoxy-5H-pyrrolo[3,2-d]pyrimidin-6-amine] — 1.8-fold higher, 1.86 µM
- CC1CN(S(=O)(=O)c2c(N)n(C3CCCCC3)c3nccnc23)CC(C)O1 (mixture of isomers) [Example 76, 5-cyclohexyl-7-(2,6-dimethylmorpholine-4-sulfonyl)-5H-pyrrolo[2,3-b]pyrazin-6-amine] — within 1.5-fold, 1.53 µM
- Nc1c(S(=O)(=O)c2ccccc2)c2cnccc2n1C1CCCCC1 [Example 23, 3-(benzenesulfonyl)-1-cyclohexyl-1H-pyrrolo[3,2-c]pyridin-2-amine] — within 1.5-fold, 1.05 µM
- Nc1c(S(=O)(=O)c2ccccc2)c2nccnc2n1CC1CCCC1 [Example 54, 5-(cyclopentylmethyl)-7-(phenylsulfonyl)-5H-pyrrolo[2,3-b]pyrazin-6-amine] — within 1.5-fold, 1.54 µM
